Test results published in publication PMC7661967, “Magnetic Resonance Molecular Imaging of Extradomain B Fibronectin Improves Imaging of Pancreatic Cancer Tumor Xenografts” (Frontiers in Oncology, 2020).
“Also recorded” adds a separate entry of the source. One block for each molecule: values may come before it. No end group written: not given here.

Experiments:
[1] = T1 and T2 relaxivity measurement at 3T; format: physicochemical; conditions: 0-2 mM MT218 in DPBS buffer
Procedure: The T1 and T2 values of MT218 and Gd(HP-DO3A) solutions were determined using a 3T MRS 3000 scanner (MR Solutions, Guildford, UK). Solutions of MT218 were prepared at concentrations of 0, 0.25, 0.5, 1, and 2 mM in DPBS buffer (Gibco, Gaithersburg, MD). T1 values were measured using an inversion recovery-fast low angle shot (IR-FLASH) sequence (τ = 10 ms, TE = 4 ms, FA = 8°, echoes/frames = 128, FOV = 40 mm × 40 mm, slice thickness = 2 mm, number of averages = 1, time delay = 4,000 ms, sample period = 200, matrix = 256 × 128). T2 values were obtained using a multi-echo multi-slice (MEMS) sequence (TE = 15 ms, […], echoes = 10, FOV: 40 mm × 40 mm, slice thickness = 1 mm, number of averages = 1, matrix = 256 × 192). The r1 and r2 relaxivities were calculated from the slopes of 1/T1 and 1/T2 vs. Gd concentration plots, respectively.

[2] = test system: Capan-1 flank tumor xenografts; experiment: MRMI of Capan-1 flank tumor xenografts (7T); format: in vivo, human cells in female nu/nu mice; conditions: 0.1 mmol/kg
Procedure: (§1) For flank xenograft models, 4 × 10^6 Capan-1 cells suspended in 100 μL of a 6 mg/mL Matrigel (Corning, Corning, NY) solution was injected subcutaneously into the flank of 8-week-old female nu/nu mice. The tumor bearing mice were imaged after tumor volumes exceeded 300 mm^3. For orthotopic intrapancreatic models, the pancreas of 4-week-old female nu/nu mice were surgically exposed via a ~10 mm incision in the left ventral abdomen and the application of gentle pressure to express the spleen and associated pancreatic tissue. 1 × 10^6 BxPC3-GFP-Luc or PANC-1-GFP-Luc cells suspended in 100 μL of a Matrigel solution (6 mg/mL) was injected into the pancreatic tissue using an insulin syringe with a 31G needle. Any leakage of cell suspension was lavaged with DPBS twice to prevent intraabdominal seeding PaCa cells. The peritoneal fascia was closed with absorbable stitches, and the dermis closed with stainless steel wound clips. Prior to imaging, growth of tumor was verified by bioluminescence imaging with intraperitoneal injection of d-luciferin on IVIS Spectrum system (Perkin Elmer, Waltham, MA).
Flank tumor-bearing mice were anesthetized and a tail vein catheter inserted. MR image acquisition was performed on a 7T Biospin (Bruker, Billerica, MA) preclinical small animal scanner with a volume radiofrequency coil. Axial images were obtained using a multi-spin multi-echo (MSME) MRI sequence (500 ms TR, 8.1 ms TE, 90° FA, 4.50 cm × 4.50 cm FOV, 1.50 mm slice thickness, 16 slices, 2 averages, 200 × 200 matrix, 0.0225 × 0.0225 cm/pixel resolution). Contrast agents were injected at a dose of 0.1 mmol/kg (100 μL) via the tail vein catheter, followed by a saline flush. Images of the tumors were acquired before contrast and at various time points after contrast administration. Gd(HP-DO3A) was used as a control.
(§2) Image files were exported and analyzed in Horus software. ROIs were drawn in the tumor, liver, kidney, and muscle. Muscle ROIs were taken from the muscle, with other structures (liver, kidney, tumor) identified after comparison with published images and comparison with anatomical landmarks or bioluminescent imaging. Pancreatic lesions were localized using the liver, kidney, and spleen as anatomical landmarks. […] Size of ROIs drawn for image analysis are summarized in Supplementary Table 1. The contrast-to-noise ratio of the tumor (CNR) was calculated using the following equation, where σnoise is the standard deviation of intensities from an ROI drawn outside of the mouse body:
(§3) CNR=Mean IntensityTumor-Mean IntensityMuscle/σnoise.
(§4) Image subtraction was performed on images adjusted to the same window and level in FIJI open-source software.
(§5) Image contrast was reported as fold enhancement of contrast to noise ratio of post-contrast images over pre-contrast images using Fold Enhancement = CNRpost/CNRpre. Statistical analysis of CNR was performed in Minitab Express (Minitab Inc., State College, PA). One-way ANOVA with Fisher Individual Tests for Differences of Means post-hoc testing was performed to determine statistical significance between >2 means (p < 0.05). Student's T test was used to determine statistical significance between 2 means (p < 0.05).

[3] = test system: BxPC3-GFP-Luc intrapancreatic tumor xenografts; experiment: MRMI of BxPC3-GFP-Luc intrapancreatic tumor xenografts (3T); format: in vivo, human cells in female nu/nu mice
Procedure: as §1
(§6) Mice bearing intrapancreatic tumors were anesthetized and a tail vein catheter was inserted. Image acquisition was performed on a MR Solutions 3T MRS 3000 scanner with a mouse radiofrequency coil. Axial images were obtained using a Fast Spin Echo (FSE) MRI sequence (305 ms TR, 11 ms TE, 90° FA, 4 cm × 4 cm FOV, 1 mm slice thickness, 10 slices, echo train length = 4, echo spacing = 11 ms, 4 averages, 256 × 256 matrix, 0.0156 × […] cm/pixel resolution) with respiratory gating. Images were acquired before contrast and at different time points after contrast injection at a dose of 0.1 mmol/kg (100 μL). For competitive binding experiments, a 5:1 molar ratio of free ZD2 peptide to MT218 was injected in mice bearing intrapancreatic BxPC3 tumor xenografts (n = 3) at a dose of 0.1 mmol MT218/kg (100 μL). Images obtained on the MR Solutions 3T scanner were normalized using the Surscalereader.exe (MR Solutions, Guildford, UK) program supplied.
as §2, §3, §4, §5

[4] = test system: PANC-1-GFP-Luc intrapancreatic tumor xenografts; experiment: MRMI of PANC-1-GFP-Luc intrapancreatic tumor xenografts (3T); format: in vivo, human cells in female nu/nu mice; conditions: 0.1 mmol/kg, 10 min post-injection, n = 6
Procedure: as §1, §6, §2, §3, §4, §5

EDB-FN [5] = conditions: cited from earlier work
Procedure: ZD2 targeted MRI contrast agents have been developed and tested for MRMI of EDB-FN in aggressive breast cancer and prostate cancer models ([15], [16], [20]). The targeted contrast agent ZD2-N3-Gd(HP-DO3A) (MT218) was developed by conjugating ZD2 peptide to a clinical macrocyclic contrast agent Gd(HP-DO3A) ([16], [20]). […] MT218 is a small molecular conjugate of ZD2 peptide to a macrocyclic clinical MRI contrast agent Gd(HP-DO3A). The binding affinity of MT218 to EDB-FN was measured to be 3.2 ± 0.2 μM, which is similar to that of a previously targeted contrast agent ZD2-Gd(HP-DO3A) ([23]). The T1 and T2 relaxivities of MT218 were measured to be 6.07 ± 1.13 s^−1 mM^−1 and 8.20 ± 0.18 s^−1 mM^−1, respectively, at 3 T. T1 and T2 relaxivities of Gd(HP-DO3A) were measured to be 3.20 ± 0.96 s^−1 mM^−1 and 5. ...

EDB-FN in PaCa = conditions: PET; cited from earlier work
Excerpt: Molecular imaging of EDB-FN in cancer has been previously investigated with antibodies labeled with radioisotopes for PET imaging. Anti-EDN-FN antibody BC-1 was labeled with ^125I and tested in mice bearing U87 brain tumor and SKMel28 melanoma xenografts ([29]). […] Nanobodies with a smaller size were recently developed for molecular imaging of E ...

EDB-FN [6] = experiment: ZD2-Cy5.5 staining of human pancreatic tissue; format: binding; conditions: 500 nM, 1 h, 37°C, confocal
Procedure: Tissue sections from PaCa patients (Case Comprehensive Cancer Center, Cleveland, OH) were deparaffinized with xylene, ethanol, and washed with water. Blocking was performed with 10% goat serum (Invitrogen, Carlsbad, CA) in PBS with 0.1% Tween 20 (PBS-T) for 30 min and incubated with 500 nM ZD2-Cy5.5 in PBS-T for 1 h at 37°C. Following three washes with PBS-T, the sections were mounted using Fluoroshield mounting medium (Abcam, Cambridge, UK). Images were acquired on a FV1000 (Olympus, Waltham, MA) confocal microscope using pre-programmed emission and excitation filters for Cy5.5 (excitation: 635 nm; emission: 693 nm) and DAPI (excitation: 405 nm; emission: 461 nm), using a 10 × objective lens. All tissue samples were imaged at the same laser power and sensor gain. Images were generated from single-channel grayscale images using FIJI software.

EDB-FN [7] = experiment: Fluorescence staining of frozen mouse tumor xenograft and normal tissue sections; format: binding, human PaCa xenografts in nu/nu mice; conditions: for staining: ZD2-Cy5.5 500 nM, room temperature 2.5 h, BC-1 1:400, 4°C overnight
Procedure: For assessment of binding specificity of ZD2 peptide, flash frozen samples of tumor and normal tissues were collected from the euthanized tumor bearing mice and embedded in optimal cutting temperature media. The embedded samples were then immersed in liquid nitrogen for 5 min and transferred to −80°C for storage before cryosectioning. Tissue sections were blocked for 1 h in PBS containing 0.05% Tween-20 and 10% normal goat serum (Gibco, Gaithersburg, MD) and then stained with BC-1 primary monoclonal antibody (1:400) or ZD2-Cy5.5 (500 nM) at 4°C overnight or room temperature incubation for 2.5 h, respectively, and then washed with PBS-T buffer. Secondary Alexa Fluor 594 anti-rabbit was incubated with the BC-1 treated sections for 1 h at room temperature (1:1,000). For the blocking experiment, the tissue sections were first incubated with an excess of BC1 antibody at 4°C overnight, then washed three times with PBS-T. The sections were then incubated with ZD2-Cy5.5 at room temperature incubation for 2.5 h. The stained sections were washed with PBS-T buffer and images were acquired on an Olympus FV1000 (Waltham, MA) confocal microscope using pre-programmed emission and excitation filters for Cy5.5 (excitation: 635 nm; emission: 693 nm) and DAPI (excitation: 405 nm; emission: 461 nm), using a 10 × objective lens.

[8] = biological target: extradomain B fibronectin in human PaCa tumor xenografts in mice (human (endogenous in BxPC3, Capan-1 and PANC-1 xenografts))
[9] = biological target: extradomain B fibronectin in human PaCa tumor xenografts in mice (human (endogenous in BxPC3, Capan-1 and PANC-1 xenografts)); remark: listed apart in the source
EDB fragment of FN = experiment: MST; NT-647-labelled EDB fragment at a fixed concentration, MT218 varied; 50 mM PBS w/0.05% Tween-20; 25°C; Monolith NT.115
[10] = 0.1 mmol/kg, 10 min post-injection, n = 3

Molecule: CC(O)CN1CCN(CC(=O)[O-])CCN(CC(=O)[O-])CCN(CC(=O)[O-])CC1.[Gd+3] (stereo not shown) [Gd(HP-DO3A), reference compound]
T1 relaxivity (r1) ([1]; IR-FLASH): 3.20 ± 0.96 s⁻¹ mM⁻¹
T2 relaxivity (r2) ([1]; MEMS): 5.12 ± 0.18 s⁻¹ mM⁻¹
contrast enhancement in tumor core ([2]; after injection): did not exhibit significant tumor core enhancement
enhancement in tumor periphery, subtraction images ([2]; early time points (5–15 min post-contrast)): modest peripheral contrast enhancement
intratumoral CNR increase (post/pre) ([2]; for the duration of the experiment, n = 5): 1.77 fold
contrast enhancement throughout tumors, subtraction images ([2]; later time points (25–35 min) for MT218, all time points for Gd(HP-DO3A)): little to no intratumoral contrast
intratumoral CNR increase compared with MT218 ([2]; p < 0.01): significantly less than MT218
tumor CNR increase compared with MT218 ([3]; 0.1 mmol/kg, 10 min, p < 0.01): significantly less than that with MT218
tumor CNR increase (post/pre) ([3]; 0.1 mmol/kg, 10 min post-injection (maximum for MT218), n = 3): approximately 2.5 fold
tumor contrast enhancement [3, 10]: modest contrast enhancement
tumor enhancement, subtraction images [3, 10]: less intratumoral signal enhancement
tumor contrast enhancement ([3]; 0.1 mmol/kg, 20 min post-injection, n = 3): reduced to background level
intratumoral CNR increase (post/pre) [4]: 2.35 fold
tumor contrast enhancement [4]: did not produce significant tumor contrast enhancement
tumor signal enhancement, subtraction images [4]: little change

Molecule: TVRTSAD [ZD2]
effect of free ZD2 peptide on binding of MT218 ([3]; 5:1 molar ratio free ZD2 peptide to MT218, co-injection, n = 3): blocked the binding of the MT218 to the tumors; also recorded: inhibited the binding of MT218
binding to EDB-FN (specificity) (EDB-FN [5]): binds with high specificity to EDB-FN

Molecule: ZD2-((68)Ga-NOTA) [ZD2 peptide labeled with ^68Ga]
molecular imaging of EDB-FN in PaCa (EDB-FN in PaCa): sensitive and specific molecular imaging of EDB-FN in PaCa

ZD2-Cy5.5 binding / EDB-FN expression (EDB-FN [6]; human PaCa tissue): high EDB-FN expression and high
ZD2-Cy5.5 binding / EDB-FN expression (EDB-FN [6]; normal pancreatic tissue): little expression and low
ZD2-Cy5.5 binding / EDB-FN expression (EDB-FN [6]; precancerous PanIN tissue): moderate expression
Molecule: ZD2-Cy5.5: peptide-fluorophore conjugate (TVRTSAD; also: Cy5.5 conjugate, end of attachment not given here)
staining (EDB-FN [7]; BxPC3, Capan-1 and PANC-1 tumor tissues): high in all three tumor tissues
ZD2-Cy5.5 binding after blocking (EDB-FN [7]; flash frozen tumor tissues pre-incubated with excess BC-1 antibody, 4°C overnight, then ZD2-Cy5.5): No fluorescent signal; also recorded: blocked
staining (EDB-FN [7]; normal pancreatic and muscle tissues): undetectable; also recorded: No staining

tumor CNR fold increase, T1-weighted MRI, Capan-1 flank xenografts, MT218 0.1 mmol/kg, time course 5-35 min post-injection (maximum at 15 min) [8]: 4.8 fold
tumor CNR fold increase, T1-weighted MRI, BxPC3-GFP-Luc intrapancreatic model, MT218 0.1 mmol/kg without the free ZD2 peptide [9]: 4.5 fold
tumor contrast-to-noise ratio (CNR) fold increase, T1-weighted MRI, BxPC3-GFP-Luc intrapancreatic model, MT218 0.1 mmol/kg co-injected with a 5-fold excess of free ZD2 peptide [9]: 2.5 fold
Kd (EDB fragment of FN): 3.2 µM
Molecule: TVRTSAD (also: conjugated to Gd(HP-DO3A) via N3, end of attachment not given here) [ZD2-N3-Gd(HP-DO3A)]
